Data from US9981972B2, “N-hydroxy bicyclic hydantoin carbamates as tools for identification of serine hydrolase targets” (ABIDE THERAPEUTICS, INC., priority 2014, dated 2018).
“Also recorded” adds a separate entry of the source.

Columns and labels:
LYPLA2 = biological target: T1, LYPLA2 (Mus musculus, UniProt Q9WTL7); assay: Gel-based competitive ABPP in vitro, mouse brain membrane proteome; format: biochemical; details: for inhibition at 0.1 µM: 0.1 μM compound, read-out: LYPLA2 % INH 0.1 μM; for inhibition at 0.1 µM / inhibition at 1 µM / inhibition at 10 µM / inhibition at 100 µM: 30 min, one replicate; for inhibition at 1 µM: 1 μM compound, read-out: LYPLA2 % INH 1 μM; for inhibition at 10 µM: 10 μM compound, read-out: LYPLA2 % INH 10 μM; for inhibition at 100 µM: 100 μM compound, read-out: LYPLA2 % INH 100 μM
T1 construct: a complex proteome endogenously expressing LYPLA1/2 was incubated with test compound; from tissue; host or cells: mouse brain, membrane fraction
Method in brief: (§1)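 Mouse brain membrane proteome (1 mg/mL in DPBS) was treated with compound (0.1-100 μM) for 30 min at 37 °C, then labeled with FP-Rh (2 μM final, 30 min, 25 °C). Bands were resolved by SDS-PAGE and scanned in-gel, with inhibition taken from band optical density versus DMSO. Targets counted as active or anti-targets at ≥50% inhibition.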

LYPLA1 = biological target: T2, LYPLA1 (Mus musculus, UniProt P97823); assay: as above; format: biochemical; details: for inhibition at 0.1 µM: 0.1 μM compound, read-out: LYPLA1 % INH 0.1 μM; for inhibition at 0.1 µM / inhibition at 1 µM / inhibition at 10 µM / inhibition at 100 µM: 30 min, one replicate; for inhibition at 1 µM: 1 μM compound, read-out: LYPLA1 % INH 1 μM; for inhibition at 10 µM: 10 μM compound, read-out: LYPLA1 % INH 10 μM; for inhibition at 100 µM: 100 μM compound, read-out: LYPLA1 % INH 100 μM
T2 construct: a complex proteome endogenously expressing LYPLA1/2 was incubated with test compound; from tissue; host or cells: mouse brain, membrane fraction
Method in brief: as §1

human SHs = assay: ABPP-SILAC analysis to identify SH targets of Compound 5; format: biochemical
From the text: Compound 5 was selected for analysis by mass spectrometry (MS)-based ABPP methods to assess the range of SHs targeted by N-Hydroxy bicyclic hydantoin carbamates.

[1] = test system: FP-sensitive SHs in the mouse brain membrane proteome; assay: Gel-based competitive ABPP in vitro, mouse brain membrane proteome, anti-targets; format: biochemical; details: for Anti-target(s) 0.1 μM: SHs with at least 50% inhibition at 0.1 μM compound; for Anti-target(s) 1 μM: SHs with at least 50% inhibition at 1 μM compound; for Anti-target(s) 10 μM: SHs with at least 50% inhibition at 10 μM compound; for Anti-target(s) 100 μM: SHs with at least 50% inhibition at 100 μM compound
Method in brief: as §1

mABHD3 = biological target: T3, mABHD3 (Mus musculus, UniProt Q91ZH7); assay: Gel-based competitive ABPP, recombinant enzyme in transfected HEK293T cell lysates; format: biochemical; details: transfected HEK293T lysates, read-out: mABHD3 in vitro potency (IC50)
T3 construct: expressed in transfected cells; host or cells: HEK293T, transient transfection, pCMV-Sport6; lysate used in vitro
T3 sequence (Q91ZH7 1-411): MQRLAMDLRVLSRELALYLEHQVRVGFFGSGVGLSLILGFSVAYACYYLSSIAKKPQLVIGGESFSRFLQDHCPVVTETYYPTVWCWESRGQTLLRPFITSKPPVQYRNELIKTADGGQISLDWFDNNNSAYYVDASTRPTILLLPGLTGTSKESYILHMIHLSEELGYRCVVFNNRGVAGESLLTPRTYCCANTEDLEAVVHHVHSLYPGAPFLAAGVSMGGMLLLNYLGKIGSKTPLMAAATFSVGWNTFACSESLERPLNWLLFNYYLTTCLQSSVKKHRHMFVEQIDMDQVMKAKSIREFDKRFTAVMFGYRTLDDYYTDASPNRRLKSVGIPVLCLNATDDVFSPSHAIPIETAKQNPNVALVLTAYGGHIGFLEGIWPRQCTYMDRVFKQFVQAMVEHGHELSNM
Method: (§2) HEK293T cells were seeded at 2×10^5 per well on 6 well plates and grown for 48 h. They were then transfected with mABHD3 (pCMV-Sport6), hABHD4 (pcDNA3.1/myc-his), hPPT1 (pCMV6-XL5), or hPPT1 S115A (pCMV6-XL5), by incubating 0.5 μg of DNA with 3 μL of PEI MAX (1 mg/mL, Polysciences, Inc) in serum-free DMEM for 30 min, then adding them to cells. After 48 h cells were either treated with compound in situ, as described above, or harvested for in vitro studies. The […] PPT1 mutation was introduced using QuikChange II Site Directed Mutagenesis Kit (Agilent) with the following primers: […]
Human ABHD3 and ABHD4 were recombinantly expressed by transient transfection in HEK293T cells, and the cell lysates were combined to provide a convenient assay for monitor inhibition of both enzymes by gel-based ABPP (see FIG. 8A).

ABHD4 = biological target: T4, ABHD4 (Homo sapiens, UniProt Q8TB40); assay: as above; format: biochemical; set-up: myc-his; expressed in transfected cells; host or cells: HEK293T, transient transfection, pcDNA3.1/myc-his; lysate used in vitro; details: recombinant; for IC50: transfected HEK293T lysates, read-out: hABHD4 in vitro potency (IC50)
T4 sequence (Q8TB40 1-342): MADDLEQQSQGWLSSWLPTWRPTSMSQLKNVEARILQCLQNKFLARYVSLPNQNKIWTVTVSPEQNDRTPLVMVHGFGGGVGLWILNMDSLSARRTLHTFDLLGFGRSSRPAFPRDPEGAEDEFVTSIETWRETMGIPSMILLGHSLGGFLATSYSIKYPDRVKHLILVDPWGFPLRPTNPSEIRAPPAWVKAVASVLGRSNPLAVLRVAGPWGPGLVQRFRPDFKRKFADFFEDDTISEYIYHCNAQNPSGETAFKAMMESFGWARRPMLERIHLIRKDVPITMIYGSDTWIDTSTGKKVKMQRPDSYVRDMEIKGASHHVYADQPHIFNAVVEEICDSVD
Method: as §2
Human ABHD3 and ABHD4 were recombinantly expressed by transient transfection in HEK293T cells, and the cell lysates were combined to provide a convenient assay for monitor inhibition of both enzymes by gel-based ABPP (see FIG. 8A). […]

[2] = Analysis of cytotoxicity (WST-1); format: cell-based, human; details: human, HeLa cells; HeLa, 48 h, WST-1
Method: Assay Overview: The purpose of this assay was to determine cytotoxicity of powder samples of test compounds. In this assay, HeLa cells in either serum-free medium or medium containing fetal calf serum (FCS) were incubated with test compounds, followed by determination of cell viability. The assay utilized the WST-1 substrate, which was converted into colorimetric formazan dye by the metabolic activity of viable cells. The amount of formed formazan directly correlated to the number of metabolically active cells in the culture.
Protocol Summary: This assay was started by seeding HeLa cells in DMEM medium supplemented with 10% FCS and 1× Pen-Strep-Glutamine in a 96-well plate. Cells were incubated at 37° C. in a humidified incubator until 80% confluent (24 hours). Medium was removed, and 100 μL of fresh medium (serum-free or supplemented with 10% FCS), pre-mixed with DMSO or test compound, was added to each well. Cells were incubated for 48 hours at 37° C. in a humidified incubator and cell viability was determined by the WST-1 assay (Roche) according to manufacturer instructions. CC50 values were determined from dose-response curves from three replicates at each inhibitor concentration (10, 100, 1000, 10000, 100000 nM), compared to six replicates of cells treated with DMSO only.

human LYPLA1 = biological target: T5, human LYPLA1 (Homo sapiens, UniProt O75608); assay: IC50 by gel-based competitive ABPP in vitro, soluble HeLa cell proteome; format: biochemical; details: human LYPLA isoform, three replicates; Table 2 prints no unit, nM; read-out: LYPLA1 IC50
T5 construct: endogenous human LYPLA1/2 in a HeLa soluble proteome; endogenous in cells; host or cells: HeLa (soluble proteome in vitro; cultured cells in situ)
Method: (§3) Assay Overview: The purpose of this assay was to determine IC50 values of powder samples of test compounds for enzyme of interest activity, and anti-targets in a complex proteomic lysate using a gel-based competitive ABPP assay. In this assay, a complex proteome was incubated with test compound followed by reaction with FP-Rh and SDS-PAGE analysis as described above.
(§4) Protocol Summary: Soluble HeLa cell proteome (50 μL reaction volume, 1 mg/mL in DPBS) or mouse brain membrane proteome (50 μL reaction volume, 1 mg/mL in DPBS) was treated with varying concentrations of test compound (1 μL of a 50× stock in DMSO) for 30 minutes at 37° C. FP-Rh (1 μL of 50× stock in DMSO) was added to a final concentration of 2 μM. The reaction was incubated for 30 minutes at 25° C., quenched with 16 μL 4×SDS-PAGE loading buffer (reducing), separated by SDS-PAGE and visualized by in-gel fluorescent scanning. The percentage activity remaining was determined by measuring the integrated optical density of the enzymes of interest, and anti-target bands relative to a DMSO-only (no compound) control. IC50 values were determined from dose-response curves from three replicates at each inhibitor concentration: 1, 10, 100, 1000, 10000 nM and 0.01, 0.1, 1, 10, 100, 1000, 10000, 50000, and 100000 nM.

human LYPLA2 = biological target: T6, human LYPLA2 (Homo sapiens, UniProt O95372); assay: as above; format: biochemical; details: human LYPLA isoform, three replicates; Table 2 prints no unit, nM; read-out: LYPLA2 IC50
T6 construct: endogenous human LYPLA1/2 in a HeLa soluble proteome; endogenous in cells; host or cells: HeLa (soluble proteome in vitro; cultured cells in situ)
Method: as §3, §4

[3] = 20 μM, mouse brain (mem) proteome

T2 sequence (P97823 whole entry): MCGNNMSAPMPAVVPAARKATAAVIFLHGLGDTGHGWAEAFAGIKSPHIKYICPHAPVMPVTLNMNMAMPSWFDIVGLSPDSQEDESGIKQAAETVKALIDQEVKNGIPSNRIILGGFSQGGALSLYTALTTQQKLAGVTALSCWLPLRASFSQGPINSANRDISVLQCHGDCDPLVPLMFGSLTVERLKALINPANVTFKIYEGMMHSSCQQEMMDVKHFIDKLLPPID
T1 sequence (Q9WTL7 whole entry): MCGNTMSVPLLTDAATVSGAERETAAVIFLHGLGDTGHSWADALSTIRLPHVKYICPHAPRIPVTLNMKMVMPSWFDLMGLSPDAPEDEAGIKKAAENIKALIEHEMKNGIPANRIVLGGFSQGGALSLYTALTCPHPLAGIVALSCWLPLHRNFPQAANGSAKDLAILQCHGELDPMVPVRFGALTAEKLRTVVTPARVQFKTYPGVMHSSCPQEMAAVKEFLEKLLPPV
T5 sequence (O75608 whole entry, canonical isoform): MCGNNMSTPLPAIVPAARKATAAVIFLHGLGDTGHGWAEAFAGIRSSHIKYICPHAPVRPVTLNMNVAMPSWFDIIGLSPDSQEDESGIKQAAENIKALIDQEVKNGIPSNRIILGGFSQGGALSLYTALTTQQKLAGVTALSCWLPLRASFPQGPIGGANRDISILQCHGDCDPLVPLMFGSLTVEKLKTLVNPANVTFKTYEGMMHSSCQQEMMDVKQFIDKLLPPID
T6 sequence (O95372 whole entry, canonical isoform): as the sequence (Q9WTL7 whole entry) above, with N154A, T193S counted along it

SMILES | inhibition at 0.1 µM (LYPLA2) | inhibition at 1 µM (LYPLA2) | inhibition at 10 µM (LYPLA2) | inhibition at 100 µM (LYPLA2) | inhibition at 0.1 µM (LYPLA1) | inhibition at 1 µM (LYPLA1) | inhibition at 10 µM (LYPLA1) | inhibition at 100 µM (LYPLA1) | IC50 (mABHD3) | IC50 (ABHD4) | Anti-target(s) 0.1 μM [1] | Anti-target(s) 1 μM [1] | Anti-target(s) 10 μM [1] | Anti-target(s) 100 μM [1] | other results
COC(=O)C1CCN(C(=O)ON2C(=O)C3CN(Cc4ccc(Oc5ccccc5)cc4)CCN3C2=O)CC1 (stereo not shown) [Compound 31, 1-(1,3-dioxo-7-(4-phenoxybenzyl)hexahydroimidazo[1,5-a]pyrazin-2(3H)-yl) 4-methyl piperidine-1,4-dicarboxylate] |  |  |  |  |  |  |  |  | > 10 µM | 8200 nM |  |  |  |  | LYPLA2 in vitro enzyme activity, % @ 20 μM (LYPLA2; [3]): 0% @; LYPLA1 in vitro enzyme activity, % @ 20 μM (LYPLA1; [3]): 0% @
COc1ccc(N2CCN(C(=O)ON3C(=O)C4CN(Cc5cccc(Oc6ccccc6)c5)CCN4C3=O)CC2)cc1 (stereo not shown) [Compound 36, 1,3-dioxo-7-(3-phenoxybenzyl)hexahydroimidazo[1,5-a]pyrazin-2(3H)-yl 4-(4-methoxyphenyl)piperazine-1-carboxylate] |  |  |  |  |  |  |  |  | > 10 µM | 200 nM |  |  |  |  | preference ABHD4 over ABHD3 (ABHD4; combined HEK293T lysates, gel-based ABPP): preferentially inhibited ABHD4 over ABHD3

More lines, main results first:

inhibition at 0.1 µM (LYPLA2) | inhibition at 1 µM (LYPLA2) | inhibition at 10 µM (LYPLA2) | inhibition at 100 µM (LYPLA2) | inhibition at 0.1 µM (LYPLA1) | inhibition at 1 µM (LYPLA1) | inhibition at 10 µM (LYPLA1) | inhibition at 100 µM (LYPLA1) | IC50 (mABHD3) | IC50 (ABHD4) | SMILES | Anti-target(s) 0.1 μM [1] | Anti-target(s) 1 μM [1] | Anti-target(s) 10 μM [1] | Anti-target(s) 100 μM [1] | other results
50% | 80% | 100% | 100% | 50% | 80% | 100% | 100% |  |  | CC(C)(C)OC(=O)N1CCN2C(=O)N(OC(=O)N3CCC(CCc4ccc(Cl)cc4)CC3)C(=O)C2C1 (stereo not shown) [Compound 5, tert-butyl 2-(4-(4-chlorophenethyl)piperidine-1-carbonyloxy)-1,3-dioxohexahydroimidazo[1,5-a]pyrazine-7(1H)-carboxylate] | ABHD6 | FAAH,; also recorded: ABHD6 | FAAH,; also recorded: ABHD12,; also recorded: ABHD6 | FAAH,; also recorded: ABHD12,; also recorded: MAGL,; also recorded: ABHD6 | SHs inhibited by Compound 5 (three-fold or greater decrease in signal) (human SHs): ABHD6 and MGLL and ABHD4 and ABHD12 and PLA2G15 and PNPLA4
 |  |  |  |  |  |  |  | > 10 µM | 1000 nM | O=C(ON1C(=O)C2CN(Cc3cccc(Oc4ccccc4)c3)CCN2C1=O)N1CCC(CCc2ccc(Cl)cc2)CC1 (stereo not shown) [Compound 35, 1,3-dioxo-7-(3-phenoxybenzyl)hexahydroimidazo[1,5-a]pyrazin-2(3H)-yl 4-(4-chlorophenethyl)piperidine-1-carboxylate] |  |  |  |  | 
50% | 100% | 100% | 100% | 50% | 100% | 100% | 100% |  |  | O=C(ON1C(=O)C2CN(C(=O)N3CCCCC3)CCN2C1=O)N1CCC(CCc2ccc(Cl)cc2)CC1 (stereo not shown) [Compound 2, 1,3-dioxo-7-(piperidine-1-carbonyl)hexahydroimidazo[1,5-a]pyrazin-2(3H)-yl 4-(4-chlorophenethyl)piperidine-1-carboxylate] | ABHD6 | FAAH,; also recorded: ABHD6 | FAAH,; also recorded: ABHD12,; also recorded: ABHD4,; also recorded: MAGL,; also recorded: ABHD6 | FAAH,; also recorded: ABHD12,; also recorded: ABHD4,; also recorded: MAGL,; also recorded: ABHD6 | CC50 at 48 h [2]: ≥ 10 µM; IC50 (human LYPLA1): 154 nM; IC50 (human LYPLA2): 258 nM
